Substitutions are numbered along the chain they refer to. Blank lines part the entries; values can stand above or below the molecule they belong to.
How the values were obtained:
[1] = test system: 22RV1 prostate cancer cells; experiment: Anti-proliferative activity against resistant 22RV1 cells expressing AR-V7; type: cell-based; conditions: for Activity against tumor cells expressing AR splice variants: 22RV1 cells, in words; for IC50: Homo sapiens, 22RV1 cells expressing AR-V7 splice variant, read-out: Antiproliferative activity IC50
Method: (§1) The cells were then digested with trypsin and counted using an automated cell counter to determine cell density. The cell suspension was diluted to the desired density in growth medium. Subsequently, 100 μL of the cell suspension was seeded into 96-well plates and incubated at 37° C. with 5% CO2 for 24 hours. 10 μL of drug solution (including 3-fold serial dilutions of compounds or DMSO) was added to each well, and the plates were incubated at 37° C. with 5% CO2 for 6 days. Prior to measurement, the assay plates were equilibrated to room temperature. 40 μL of CellTiter-Glo® reagent was added to each well. The plates were mixed on an orbital shaker for 2 minutes to induce cell lysis. After incubation at room temperature for 60 minutes to stabilize the luminescence signal, the plates were read on an Envision plate reader.
The experimental procedure was essentially the same as that for LNCaP cells.

AR = target: T1, AR (Homo sapiens, UniProt P10275, T878A); experiment: In vitro AR degradation activity test in LNCaP cells (ELISA, OD450); type: cell-based; conditions: LNCaP cells, 24 hours
T1 construct: endogenous in cells; host or cells: LNCaP
T1 sequence (P10275 1-920 T878A): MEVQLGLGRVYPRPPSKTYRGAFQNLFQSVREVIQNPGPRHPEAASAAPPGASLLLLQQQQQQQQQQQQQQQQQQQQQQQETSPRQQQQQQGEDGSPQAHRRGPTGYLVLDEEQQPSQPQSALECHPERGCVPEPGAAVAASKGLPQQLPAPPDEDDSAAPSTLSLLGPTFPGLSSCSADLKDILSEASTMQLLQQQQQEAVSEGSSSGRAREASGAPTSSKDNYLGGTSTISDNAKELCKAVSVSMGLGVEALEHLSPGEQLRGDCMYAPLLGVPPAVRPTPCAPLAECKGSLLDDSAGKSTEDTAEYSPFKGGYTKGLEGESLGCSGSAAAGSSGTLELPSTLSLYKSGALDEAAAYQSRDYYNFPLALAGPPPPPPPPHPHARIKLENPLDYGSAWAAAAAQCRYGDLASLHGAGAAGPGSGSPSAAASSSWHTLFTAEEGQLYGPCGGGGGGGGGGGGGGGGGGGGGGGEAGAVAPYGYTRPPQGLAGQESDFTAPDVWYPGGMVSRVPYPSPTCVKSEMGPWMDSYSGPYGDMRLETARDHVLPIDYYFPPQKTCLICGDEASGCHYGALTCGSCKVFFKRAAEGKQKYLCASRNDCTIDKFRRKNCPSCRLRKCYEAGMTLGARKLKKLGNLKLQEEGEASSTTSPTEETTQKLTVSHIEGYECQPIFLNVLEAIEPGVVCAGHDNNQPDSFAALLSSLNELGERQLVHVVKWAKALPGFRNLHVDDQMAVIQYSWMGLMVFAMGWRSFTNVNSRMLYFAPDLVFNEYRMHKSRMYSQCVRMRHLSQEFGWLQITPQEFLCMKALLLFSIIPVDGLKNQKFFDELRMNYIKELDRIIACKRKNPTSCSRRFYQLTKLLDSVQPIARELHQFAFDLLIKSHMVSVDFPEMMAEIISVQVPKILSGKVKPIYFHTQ
Method: The cells were then digested with trypsin and counted using an automated cell counter. The cell suspension was diluted to the desired density in growth medium. The cell suspension was then seeded into 96-well plates at 100 μL per well, and the plates were incubated at 37° C. with 5% CO2 for 24 hours. The compounds were then diluted 200-fold to the final concentration with DMSO or 3-fold to the final concentration with culture medium. 50 μL of compound solution was transferred to the 96-well plate and incubated at 37° C. for 24 hours. After 24 hours of incubation, the cell plate was washed 3 times with DPBS, 100 μL of 1× lysis buffer was added to each well, and placed on ice for 30 minutes. The supernatant was collected. The protein in the cell lysate samples was quantified and then diluted to the required concentration. 100 μL of cell lysate sample was added to the appropriate wells, sealed with tape and pressed firmly on top of the wells, and the plate was incubated at 37° C. for 2 hours. The plate contents were then discarded, and washed 4 times with 1× wash buffer, 200 μL per well each time. 100 μL of reconstituted detection antibody was then added, the plate was sealed with tape and incubated at 37° C. for 1 hour. The aspiration/wash step was then repeated, 100 μL of reconstituted HRP-Linked secondary antibody was added to each well, the plate was sealed with tape and incubated at 37° C. for 30 minutes. The aspiration/wash step was then repeated, 100 μL of substrate solution was added to each well and incubated at 37° C. for 10 minutes, and finally 100 μL of stop solution was added to each well. The plate was gently tapped to ensure thorough mixing, and the OD450 nm was recorded.
Degradation rate (%)=(OD450_max−OD450_sample)/(OD450_max−OD450_min)×100,plotted using GraphPad Prism 5 software, and IC50 is calculated using SPSS software.

LNCaP cells = experiment: In vitro LNCaP cell proliferation inhibition test (CellTiter-Glo); type: cell-based; conditions: for Maximum Inhibition (%) / IC50: 6 days; for IC50: Homo sapiens, read-out: Anti-proliferative activity IC50
Method: as §1

[2] = In vivo pharmacokinetics in rats after oral gavage; conditions: male SD rats, PO 10 mg/kg; for AUC(0-inf) / AUC(0-t) / half-life / Cmax / tmax: rat, plasma; for Cmax: read-out: Cmax; for tmax: read-out: tmax
Method: Male SD rats were randomly divided into 6 groups, 3 rats per group. The rats were fasted but not water-deprived for 12-14 h one day before dosing. The test samples were then dissolved in a solvent of 5% DMSO+30% PEG400+65% (0.5% MC) and administered by gavage at 10 mg/kg. Food was provided 4 h after dosing. Blood samples (0.10 mL) were collected via the orbital sinus at 0, 15, 30 min, 1, 2, 4, 6, 8, and 24 h, with EDTA-K2 as anticoagulant. Blood samples were placed on ice after collection and centrifuged to separate plasma within 30 minutes (centrifugation conditions: 5000 rpm, 10 minutes, 4° C.). 50.0 μL of plasma sample (taken from −80° C. freezer, thawed naturally at room temperature and vortexed for 30 seconds) was added to a 1.5 mL centrifuge tube, followed by addition of 500 μL internal standard solution (methanol (TEDIA, HPLC grade), acetonitrile (TEDIA, HPLC grade), formic acid (FA, ACROS ORGANICS, HPLC grade), water was laboratory-made ultrapure water (100.0 ng·mL−1)). The mixture was vortexed for 60 seconds and centrifuged for 3 minutes (centrifugal force 12000 rpm). 100 μL of the supernatant was transferred to a 96-well injection plate containing an equal volume of water, mixed by shaking, and analyzed by LC-MS/MS with an injection volume of 10 μL. The data acquisition and control system software was Analyst 1.5.1 software (Applied Biosystem). The chromatographic sample peaks were integrated automatically. The ratio of sample peak area to internal standard peak area was used as an indicator for regression with sample concentration.
The pharmacokinetic parameters of representative compounds of the present invention were tested in male SD rats after oral gavage administration at 10 mg/kg according to the above conventional method to examine the pharmacokinetic characteristics of the compounds of the present invention in rats.

TMPRSS2 = TMPRSS2 mRNA expression in A549 cells (qPCR); type: cell-based; conditions: 10 μM, 1 nM DHT, 48 h, Blank = 1
ACE2 = ACE2 mRNA expression in A549 cells (qPCR); type: cell-based; conditions: 10 μM, 1 nM DHT, 48 h, Blank = 1
wild-type AR = target: T2, wild-type AR (Homo sapiens, UniProt P10275); experiment: Wild-type AR antagonist activity test (luciferase reporter in HEK293 cells); type: cell-based; conditions: for IC50: HEK293 cells, luciferase expression, DHT 1.5 nM, 24 hours; for AR antagonist activity, times higher than that of the control enzalutamide: ratio to enzalutamide IC50
T2 construct: expressed in transfected cells; host or cells: HEK293
T2 sequence (P10275 1-920): T1 sequence (P10275 1-920 T878A) with A878T
Method: HEK293 cells were cultured in DMEM containing 10% fetal bovine serum (FBS) at 37° C. with 5% CO2. The cells were then digested with trypsin and counted. A 10 μL/well transfection solution was prepared in opti-MEM containing 5 ng androgen receptor clone, 100 ng pGL4.36 vector, and 315 nL fugene. […] The diluted cell suspension was seeded into 96-well plates at 90 μL (40,000 cells/well), and the plates were incubated for 24 hours. Then, 10 μL of drug solution (including gradient diluted compounds or DMSO) was added, and the plates were incubated for 30 minutes. […] After 24 hours of incubation, 100 μL of Steady-Glo was added to each well of the plate, the plate was shaken at room temperature for 20 minutes, and read on an Envision.

IC50 [1]: > 10000 nM
Compound: CC(O)c1cc(C(=O)N[C@@H](C)Cn2ccc(-c3ccc(C#N)c(Cl)c3)n2)[nH]n1 (some centres unmarked) [Darolutamide, darolutamide]
Activity against tumor cells expressing AR splice variants [1]: no activity

Compound: C[C@]12CC[C@H](NC(=O)c3ccncc3)CC1=CCC1C2CC[C@]2(C)C(n3ccnc3)=CCC12 (stereo partly drawn) [Compound 17, N-((3S,10R,13S)-17-(1H-imidazol-1-yl)-10,13-dimethyl-2,3,4,7,8,9,10,11,12,13,14,15-dodecahydro-1H-cyclopenta[a]phenanthren-3-yl)isonicotinamide]
DC50 (AR): 1980 nM | Maximum Inhibition (%) (LNCaP cells): 96.99% | IC50 (LNCaP cells): 317 nM | Anti-proliferative activity, fold improvement compared to abiraterone (LNCaP cells; ratio to abiraterone IC50): 8.8 fold | Kel [2]: 0.112 h⁻¹ | MRTPO [2]: 15.5 h | AUC(0-inf) [2]: 65600 ng·h/mL | AUC(0-t) [2]: 28800 ng·h/mL | half-life [2]: 10 h | Cmax [2]: 4500 ng/mL | tmax [2]: 2 h

IC50 [1]: > 10000 nM
Compound: CNC(=O)c1ccc(N2C(=S)N(c3cnc(C#N)c(C(F)(F)F)c3)C(=O)C23CCC3)cc1F [Apalutamide, apalutamide]
Activity against tumor cells expressing AR splice variants [1]: no activity

Compound: CNC(=O)c1ccc(N2C(=S)N(c3ccc(C#N)c(C(F)(F)F)c3)C(=O)C2(C)C)cc1F [Enzalutamide, enzalutamide, reference compound]
Maximum Inhibition (%) (LNCaP cells): 55.16% | Activity against tumor cells expressing AR splice variants [1]: no activity

Compound: CC1(C)C(=O)N(c2ccc(C#N)c(C(F)(F)F)c2F)C(=S)N1c1ccc(CCCc2ncco2)nc1 [Proxalutamide, proxalutamide, reference compound]
TMPRSS2 mRNA level (TMPRSS2): 0.608 | ACE2 mRNA level (ACE2): 0.463

Compound: C[C@]12CC[C@H](NC(=O)c3ccnnc3)CC1=CCC1C2CC[C@]2(C)C(n3ccnc3)=CCC12 (some centres unmarked) [Compound 16]
DC50 (AR): 2760 nM | Maximum Inhibition (%) (LNCaP cells): 92.41% | IC50 (LNCaP cells): 382 nM | Kel [2]: 0.296 h⁻¹ | MRTPO [2]: 6.25 h | AUC(0-inf) [2]: 37500 ng·h/mL | AUC(0-t) [2]: 37400 ng·h/mL | half-life [2]: 2.36 h | Cmax [2]: 3240 ng/mL | tmax [2]: 4 h

Compound: Cc1cn(C2=CCC3C4CC=C5C[C@@H](NC(=O)c6ccnnc6)CC[C@]5(C)C4CC[C@]23C)cn1 (some centres unmarked) [Compound 13]
IC50 (wild-type AR): 244 nM | AR antagonist activity, times higher than that of the control enzalutamide (wild-type AR): 1.8 times | DC50 (AR): 2080 nM | Maximum Inhibition (%) (LNCaP cells): 96.97% | IC50 (LNCaP cells): 466 nM | Anti-tumor activity and efficacy compared to enzalutamide (LNCaP cells; in words): comparable anti-tumor activity but significantly superior anti-tumor efficacy compared to enzalutamide

Compound: Cc1cn(C2=CCC3C4CC=C5C[C@@H](NC(=O)c6ccc([N+](=O)[O-])cc6)CC[C@]5(C)C4CC[C@]23C)cn1 (stereo partly drawn) [Compound 34, N-((3S,10R,13S)-17-(4-methyl-1H-imidazol-1-yl)-10,13-dimethyl-2,3,4,7,8,9,10,11,12,13,14,15-dodecahydro-1H-cyclopenta[a]phenanthren-3-yl)-4-nitrobenzamide]
IC50 (wild-type AR): 70.6 nM | AR antagonist activity, times higher than that of the control enzalutamide (wild-type AR): 6.2 times | DC50 (AR): 2600 nM

— patent US20250073249A1, “STEROID COMPOUND, AND PREPARATION METHOD THEREFOR AND USE THEREOF” (SHANGHAI INSTITUTE OF MATERIA MEDICA, CHINESE ACADEMY OF …, priority 2022, published 2025)
